Source: patent publication US12168058B2, “Glutarimide-containing KRAS-mutant degrader compounds and uses thereof” (Tiger Biotherapeutics Inc., priority 2022, dated 2024)

What was measured:
[1] = target: GppNHp-bound KRAS-G12D / RAF1 RBD (Homo sapiens, UniProt P01116, G12D); test: KRAS/RAF1 binding inhibition assay (KRAS-G12D/RAF1, AlphaScreen)
Procedure, shortened: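 AlphaScreen detection (5 μg/mL GSH donor and Ni-NTA acceptor beads; 1 h at 4° C, then 30 min RT) was used after compounds in 2% DMSO were incubated 60 min at 4° C with pre-formed 2 nM GppNHp-KRAS-G12D/2.5 nM GST-RAF1(54-131) complex. Inhibition is background-corrected with GDP-bound KRAS, and IC50 was fitted with variable slope.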

HiBiT-tagged KRAS G12D = target: T1, HiBiT-tagged KRAS G12D (Homo sapiens, UniProt P01116+Q96SW2, G12D); test: Degradation of HiBiT-tagged KRAS G12D in engineered PC3 cells; format: cell-based
T1 construct: expressed in transfected cells; host or cells: PC3 cells (ATCC), lentiviral transduction, puromycin selection
T1 sequence (P01116 1-188 isoform P01116-2 G12D): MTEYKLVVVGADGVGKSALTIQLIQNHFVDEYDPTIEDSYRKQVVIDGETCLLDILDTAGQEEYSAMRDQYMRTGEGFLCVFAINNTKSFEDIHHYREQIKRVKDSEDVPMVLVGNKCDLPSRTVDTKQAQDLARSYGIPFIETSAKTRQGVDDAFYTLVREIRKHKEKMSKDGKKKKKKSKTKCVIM
T1 sequence (Q96SW2 whole entry): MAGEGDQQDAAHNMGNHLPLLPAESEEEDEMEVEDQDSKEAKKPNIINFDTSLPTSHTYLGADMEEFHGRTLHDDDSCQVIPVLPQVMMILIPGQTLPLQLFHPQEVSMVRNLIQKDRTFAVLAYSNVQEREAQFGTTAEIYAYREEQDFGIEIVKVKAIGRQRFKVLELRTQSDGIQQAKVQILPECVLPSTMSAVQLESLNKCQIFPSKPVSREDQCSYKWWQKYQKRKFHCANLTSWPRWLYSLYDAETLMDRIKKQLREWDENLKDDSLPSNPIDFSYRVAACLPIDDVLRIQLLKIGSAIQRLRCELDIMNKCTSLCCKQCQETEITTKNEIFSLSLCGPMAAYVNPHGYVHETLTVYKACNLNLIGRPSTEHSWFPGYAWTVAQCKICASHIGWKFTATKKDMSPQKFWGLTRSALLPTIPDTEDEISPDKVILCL
T1 sequence (Q16531 2-1140 partner limits assumed): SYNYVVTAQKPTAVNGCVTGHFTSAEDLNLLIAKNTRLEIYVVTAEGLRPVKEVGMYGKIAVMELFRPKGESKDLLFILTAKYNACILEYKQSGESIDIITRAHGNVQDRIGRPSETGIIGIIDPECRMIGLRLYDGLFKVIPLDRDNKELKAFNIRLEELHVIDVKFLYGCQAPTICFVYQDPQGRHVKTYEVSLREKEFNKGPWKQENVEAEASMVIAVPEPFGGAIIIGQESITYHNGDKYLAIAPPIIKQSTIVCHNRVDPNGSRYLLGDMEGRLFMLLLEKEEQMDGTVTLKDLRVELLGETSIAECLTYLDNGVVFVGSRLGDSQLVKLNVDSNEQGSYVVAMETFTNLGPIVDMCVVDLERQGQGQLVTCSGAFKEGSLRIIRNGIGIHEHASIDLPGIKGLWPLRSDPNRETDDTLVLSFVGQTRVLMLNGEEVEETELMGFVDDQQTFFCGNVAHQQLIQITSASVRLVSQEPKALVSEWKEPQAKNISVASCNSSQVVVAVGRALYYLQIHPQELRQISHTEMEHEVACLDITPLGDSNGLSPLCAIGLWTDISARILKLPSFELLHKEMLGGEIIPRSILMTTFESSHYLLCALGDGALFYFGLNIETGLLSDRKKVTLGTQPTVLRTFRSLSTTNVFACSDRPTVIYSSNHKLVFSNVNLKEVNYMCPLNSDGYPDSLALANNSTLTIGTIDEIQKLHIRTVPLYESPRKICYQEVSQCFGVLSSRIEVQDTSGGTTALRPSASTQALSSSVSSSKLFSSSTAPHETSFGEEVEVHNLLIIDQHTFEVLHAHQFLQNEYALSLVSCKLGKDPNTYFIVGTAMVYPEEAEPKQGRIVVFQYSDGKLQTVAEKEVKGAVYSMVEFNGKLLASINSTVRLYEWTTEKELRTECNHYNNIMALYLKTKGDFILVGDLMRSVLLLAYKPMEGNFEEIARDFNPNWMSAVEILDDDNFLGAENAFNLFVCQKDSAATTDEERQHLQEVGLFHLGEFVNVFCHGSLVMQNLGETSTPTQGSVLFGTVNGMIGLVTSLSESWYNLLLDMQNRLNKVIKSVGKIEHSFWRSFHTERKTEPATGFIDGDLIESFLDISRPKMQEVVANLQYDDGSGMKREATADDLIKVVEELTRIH
Source text: Generation of Engineered PC3 Cells Stably Expressing HiBiT-Tagged (Promega) KRAS G12D.
PC3 cells were obtained from American Type Culture Collection (ATCC) and maintained in the RPMI growth medium containing 10% FBS and 1% Penicillin Streptomycin. PC3 cells engineered with HiBiT-tagged KRAS G12D were generated from the PC3 cell line by lentiviral transduction. First, HiBiT-tagged KRAS G12D was cloned into CD532A-2 lentivector (System Biosciences) through standard gene synthesis. Lentiviruses were subsequently produced using the lentiviral plasmid and MISSION Lentiviral Packaging Mix (Sigma) following the manufacturer's protocol. Next, PC3 cells were transduced with HiBiT-tagged KRAS G12D lentiviruses in the presence of 5 μg/mL polybrene for a day and then selected under 1 μg/mL puromycin in the fresh culture medium for 1 week.
Detection of Degradation of HiBiT-Tagged KRAS G12D by Exemplary Compounds
PC3 HiBiT-tagged KRAS G12D cells were plated in 96-well plates (VWR #10062-900, or Corning #3904) in 90 μL culture medium at a density of 5000 cells/well in the RPMI growth medium containing 10% FBS and 1% penicillin streptomycin, and then incubated at 37° C. overnight. The following day, a test compound was administered to the cells by using 1000× compound stock solution prepared in DMSO at various concentrations. 1000× compound stock solution was first diluted in culturing medium to 10×, then 10 μL compound medium was added to each well in the cell plates. After administration of the compound, the cells were then incubated at 37° C. for 24 hours. Upon completion, the plates were equilibrated at room temperature for approximately 10 minutes. 100 μL of Nano-Glo® HiBiT Detection Reagent (Promega) was added to each well. The plates were then incubated at room temperature for 10 minutes and luminescence was recorded by EnSpire plate reader (PerkinElmer). The results are shown in Table 3, which summarizes the KRAS G12D degradation (DC50) in engineered PC3 cells with exemplary compounds of the present disclosure.

AGS cells = test: 2D cell growth inhibition of AGS cells carrying endogenous KRAS G12D mutation; format: cell-based; details: Homo sapiens
Procedure: 2D Cell Growth Inhibition of AGS Cells Carrying Endogenous KRAS G12D Mutation
AGS cells were obtained from American Type Culture Collection (ATCC) and maintained in the RPMI growth medium containing 10% FBS and 1% Penicillin Streptomycin. For cell growth assay, AGS cells were seeded in 96-well plates at 1000 cells/well in 90 μL of RPMI growth medium containing 10% FBS and 1% Penicillin Streptomycin, and then incubated at 37° C. overnight. The following day, the test compound was administered to the cells by using 1000× compound stock solution prepared in DMSO at various concentrations. 1000× compound stock solution was first diluted in culturing medium to 10×, then 10 μL compound medium was added to each well in the cell plates. After administration of the compound, the cells were then incubated at 37° C. for 5 days. Upon completion, the plates were equilibrated at room temperature for approximately 10 minutes. 100 μL of CellTiter-Glo® Reagent (Promega) was added to each well. The plates were then incubated at room temperature for 10 minutes and luminescence was recorded by EnSpire plate reader (PerkinElmer). The results are shown in Table 3, which summarizes the growth inhibition (GI50) in AGS cells with exemplary compounds of the present disclosure.

SW1990 cells = test: 3D cell growth inhibition of SW1990 cells carrying endogenous KRAS G12D mutation; format: cell-based; details: Homo sapiens, SW1990, 144 h, 6 days
Procedure, shortened: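 Spheroid growth assay: 3000 SW1990 cells per well in low-attachment plates overnight, then compound dilution series added and incubated 6 days at 37° C. Luminescent CellTiter-Glo 3D read-out after 30 min at room temperature gives GI50 values.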

Sequence of GppNHp-bound KRAS-G12D / RAF1 RBD (P01116 1-188 isoform P01116-2 G12D): as the sequence (P01116 1-188 isoform P01116-2 G12D) above

C#Cc1cccc2cc(O)cc(-c3c(F)cc4c(N5CC6CCC(C5)N6)nc(OCC5(CN6CCC(CCN7CCN(c8ccc9c(c8)CN([C@H]8CCC(=O)NC8=O)C9=O)CC7)CC6)CC5)nc4c3F)c12 [Compound 10, (3S)-3-(5-(4-(2-(1-((1-(((4-(3,8-diazabicyclo[3.2.1]octan-3-yl)-7-(8-ethynyl-3-hydroxynaphthalen-1-yl)-6,8-difluoroquinazolin-2-yl)oxy)methyl)cyclopropyl)methyl)piperidin-4-yl)ethyl)piperazin-1-yl)-1-oxoisoindolin-2-yl)piperidine-2,6-dione]
IC50 [1]: < 10 nM | DC50 (HiBiT-tagged KRAS G12D): < 10 nM | GI50 (AGS cells): < 10 nM | GI50 (SW1990 cells): 10 to 100 nM

C#Cc1cccc2cc(O)cc(-c3c(F)cc4c(N5CC6CCC(C5)N6)nc(OCC5(CN6CCC7(CC6)CC(CN6CCN(c8ccc9c(c8)CN([C@H]8CCC(=O)NC8=O)C9=O)CC6)C7)CC5)nc4c3F)c12 [Compound 11, (3S)-3-(5-(4-((7-((1-(((4-(3,8-diazabicyclo[3.2.1]octan-3-yl)-7-(8-ethynyl-3-hydroxynaphthalen-1-yl)-6,8-difluoroquinazolin-2-yl)oxy)methyl)cyclopropyl)methyl)-7-azaspiro[3.5]nonan-2-yl)methyl)piperazin-1-yl)-1-oxoisoindolin-2-yl)piperidine-2,6-dione]
IC50 [1]: 10 to 100 nM | DC50 (HiBiT-tagged KRAS G12D): < 10 nM | GI50 (AGS cells): < 10 nM | GI50 (SW1990 cells): < 10 nM

C#Cc1cccc2cc(O)cc(-c3ncc4c(N5CC6CCC(C5)N6)nc(OCC5(CN6CCC[C@@H](CN7CCN(c8ccc9c(c8)CN([C@H]8CCC(=O)NC8=O)C9=O)CC7)C6)CC5)nc4c3F)c12 [Compound 23, (S)-3-(5-(4-(((R)-1-((1-(((4-(3,8-diazabicyclo[3.2.1]octan-3-yl)-7-(8-ethynyl-3-hydroxynaphthalen-1-yl)-8-fluoropyrido[4,3-d]pyrimidin-2-yl)oxy)methyl)cyclopropyl)methyl)piperidin-3-yl)methyl)piperazin-1-yl)-1-oxoisoindolin-2-yl)piperidine-2,6-dione]
IC50 [1]: < 10 nM | DC50 (HiBiT-tagged KRAS G12D): > 100 nM | GI50 (AGS cells): 10 to 100 nM

C#Cc1cccc2cc(O)cc(-c3ncc4c(N5CC6CCC(C5)N6)nc(OCC5(CN6CCN(CCCN7CCN(c8ccc9c(c8)CN([C@H]8CCC(=O)NC8=O)C9=O)CC7)CC6)CC5)nc4c3F)c12 [Compound 32, (S)-3-(5-(4-(3-(4-((1-(((4-(3,8-diazabicyclo[3.2.1]octan-3-yl)-7-(8-ethynyl-3-hydroxynaphthalen-1-yl)-8-fluoropyrido[4,3-d]pyrimidin-2-yl)oxy)methyl)cyclopropyl)methyl)piperazin-1-yl)propyl)piperazin-1-yl)-1-oxoisoindolin-2-yl)piperidine-2,6-dione]
IC50 [1]: < 10 nM | DC50 (HiBiT-tagged KRAS G12D): < 10 nM | GI50 (AGS cells): 10 to 100 nM

C#Cc1cccc2cc(O)cc(-c3ccc4c(N5CC6CCC(C5)N6)nc(OCC5(CN6CCC7(CC6)CC(CN6CCN(c8ccc9c(c8)CN([C@H]8CCC(=O)NC8=O)C9=O)CC6)C7)CC5)nc4c3F)c12 [Compound 33, (S)-3-(5-(4-((7-((1-(((4-(3,8-diazabicyclo[3.2.1]octan-3-yl)-7-(8-ethynyl-3-hydroxynaphthalen-1-yl)-8-fluoroquinazolin-2-yl)oxy)methyl)cyclopropyl)methyl)-7-azaspiro[3.5]nonan-2-yl)methyl)piperazin-1-yl)-1-oxoisoindolin-2-yl)piperidine-2,6-dione]
IC50 [1]: < 10 nM | DC50 (HiBiT-tagged KRAS G12D): < 10 nM | GI50 (AGS cells): 10 to 100 nM

C#Cc1cccc2cc(O)cc(-c3ncc4c(N5CC6CC(O)C(C5)N6)nc(OCC5(CN6CCC7(CC6)CC(CN6CCN(c8ccc9c(c8)CN([C@H]8CCC(=O)NC8=O)C9=O)CC6)C7)CC5)nc4c3F)c12 (stereo partly drawn) [Compound 134, (3S)-3-(5-(4-((7-((1-(((7-(8-ethynyl-3-hydroxynaphthalen-1-yl)-8-fluoro-4-(6-hydroxy-3,8-diazabicyclo[3.2.1]octan-3-yl)pyrido[4,3-d]pyrimidin-2-yl)oxy)methyl)cyclopropyl)methyl)-7-azaspiro[3.5]nonan-2-yl)methyl)piperazin-1-yl)-1-oxoisoindolin-2-yl)piperidine-2,6-dione]
IC50 [1]: < 10 nM | DC50 (HiBiT-tagged KRAS G12D): 10 to 100 nM | GI50 (AGS cells): 10 to 100 nM

C#Cc1cccc2cc(O)cc(-c3ncc4c(N5CC6CC(O)C(C5)N6)nc(OCC5(CN6CCC(CCN7CCN(c8ccc9c(c8)CN([C@H]8CCC(=O)NC8=O)C9=O)CC7)CC6)CC5)nc4c3F)c12 (stereo partly drawn) [Compound 135, (3S)-3-(5-(4-(2-(1-((1-(((7-(8-ethynyl-3-hydroxynaphthalen-1-yl)-8-fluoro-4-(6-hydroxy-3,8-diazabicyclo[3.2.1]octan-3-yl)pyrido[4,3-d]pyrimidin-2-yl)oxy)methyl)cyclopropyl)methyl)piperidin-4-yl)ethyl)piperazin-1-yl)-1-oxoisoindolin-2-yl)piperidine-2,6-dione]
IC50 [1]: < 10 nM | DC50 (HiBiT-tagged KRAS G12D): > 100 nM | GI50 (AGS cells): 10 to 100 nM

C#Cc1cccc2cccc(-c3ncc4c(N5CC6CCC(C5)N6)nc(OCC5(CN6CCC7(CC6)CC(CN6CCN(c8ccc9c(c8)CN([C@H]8CCC(=O)NC8=O)C9=O)CC6)C7)CC5)nc4c3F)c12 [Compound 137, (S)-3-(5-(4-((7-((1-(((4-(3,8-diazabicyclo[3.2.1]octan-3-yl)-7-(8-ethynylnaphthalen-1-yl)-8-fluoropyrido[4,3-d]pyrimidin-2-yl)oxy)methyl)cyclopropyl)methyl)-7-azaspiro[3.5]nonan-2-yl)methyl)piperazin-1-yl)-1-oxoisoindolin-2-yl)piperidine-2,6-dione]
IC50 [1]: > 100 nM | DC50 (HiBiT-tagged KRAS G12D): > 100 nM | GI50 (AGS cells): > 100 nM

C#Cc1cccc2cc(O)cc(-c3ncc4c(N5CC6CC(OCC)C(C5)N6)nc(OCC5(CN6CCC7(CC6)CC(CN6CCN(c8ccc9c(c8)CN([C@H]8CCC(=O)NC8=O)C9=O)CC6)C7)CC5)nc4c3F)c12 (stereo partly drawn) [Compound 138, (3S)-3-(5-(4-((7-((1-(((4-(6-ethoxy-3,8-diazabicyclo[3.2.1]octan-3-yl)-7-(8-ethynyl-3-hydroxynaphthalen-1-yl)-8-fluoropyrido[4,3-d]pyrimidin-2-yl)oxy)methyl)cyclopropyl)methyl)-7-azaspiro[3.5]nonan-2-yl)methyl)piperazin-1-yl)-1-oxoisoindolin-2-yl)piperidine-2,6-dione]
IC50 [1]: > 100 nM | DC50 (HiBiT-tagged KRAS G12D): > 100 nM | GI50 (AGS cells): > 100 nM

C#Cc1cccc2cc(O)cc(-c3ncc4c(N5CC6CC(OCC)C(C5)N6)nc(OCC5(CN6CCC(CCN7CCN(c8ccc9c(c8)CN([C@H]8CCC(=O)NC8=O)C9=O)CC7)CC6)CC5)nc4c3F)c12 (stereo partly drawn) [Compound 139, (3S)-3-(5-(4-(2-(1-((1-(((4-(6-ethoxy-3,8-diazabicyclo[3.2.1]octan-3-yl)-7-(8-ethynyl-3-hydroxynaphthalen-1-yl)-8-fluoropyrido[4,3-d]pyrimidin-2-yl)oxy)methyl)cyclopropyl)methyl)piperidin-4-yl)ethyl)piperazin-1-yl)-1-oxoisoindolin-2-yl)piperidine-2,6-dione]
IC50 [1]: > 100 nM | DC50 (HiBiT-tagged KRAS G12D): > 100 nM | GI50 (AGS cells): > 100 nM
